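Step 1: Grow cells in 96-well plates. Step 2: Expose to compound for 48 hours at 5 concentrations. Step 3: Interpolate endpoints linearly; if unreached, use highest concentration. The concentration for 50% growth inhibition is given as GI50.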 Activity calls are given as the source filed them. Cut-off read from the data, not from the text of the source: active = GI50 up to about 1.1 µM and inactive = higher.
What was measured:
Assay in all cases: NCI tumour cell line growth inhibition, 48 h
[1] = test system: SF-295
[2] = test system: SK-MEL-28
[3] = test system: NCI-H23
[4] = test system: HCC 2998
[5] = test system: A498
[6] = test system: BT-549
[7] = test system: SK-MEL-2
[8] = test system: U-251
[9] = test system: IGROV-1
[10] = test system: UO-31
[11] = test system: SR
[12] = test system: OVCAR-3
[13] = test system: KM12
[14] = test system: OVCAR-8
[15] = test system: MOLT-4
[16] = test system: SF-268
[17] = test system: HT-29
[18] = test system: TK-10
[19] = test system: DU-145
[20] = test system: T47D

Row | Structure (SMILES) | GI50 [1] | GI50 [2] | GI50 [3] | GI50 [4] | GI50 [5] | GI50 [6] | GI50 [7] | GI50 [8] | GI50 [9] | GI50 [10] | GI50 [11] | GI50 [12] | GI50 [13] | GI50 [14] | GI50 [15] | GI50 [16] | GI50 [17] | GI50 [18] | GI50 [19] | GI50 [20]
1 | Cc1cc(=O)oc2c(OS(C)(=O)=O)c(OS(C)(=O)=O)ccc12 | > 100 µM (inactive) | > 100 µM (inactive) | > 100 µM (inactive) | > 100 µM (inactive) | > 100 µM (inactive) | > 100 µM (inactive) | > 100 µM (inactive) | > 100 µM (inactive) | > 100 µM (inactive) | > 100 µM (inactive) | > 100 µM (inactive) | > 100 µM (inactive) | > 100 µM (inactive) | > 100 µM (inactive) | > 100 µM (inactive) | > 100 µM (inactive) | > 100 µM (inactive) | > 100 µM (inactive) | – | –
2 | COC(=O)/C(=N\NC(N)=O)C(C(=O)C(=O)Nc1ccccc1C(=O)OC)c1nc2ccc(C(=O)c3ccccc3)cc2nc1O (stereo unspecified) | > 100 µM (inactive) | > 100 µM (inactive) | > 100 µM (inactive) | > 100 µM (inactive) | > 100 µM (inactive) | – | > 100 µM (inactive) | > 100 µM (inactive) | > 100 µM (inactive) | > 100 µM (inactive) | > 100 µM (inactive) | > 100 µM (inactive) | > 100 µM (inactive) | > 100 µM (inactive) | > 100 µM (inactive) | > 100 µM (inactive) | > 100 µM (inactive) | > 100 µM (inactive) | – | –
3 | CCOC(=O)C1C(C)C2(C#N)C(=N)OC1(C)C2(C#N)C#N (stereo unspecified) | > 100 µM (inactive) | 28.1 µM (inactive) | 60 µM (inactive) | > 10 µM (inactive) | > 100 µM (inactive) | – | 58.2 µM (inactive) | 69.2 µM (inactive) | 39.2 µM (inactive) | 76.9 µM (inactive) | – | – | > 100 µM (inactive) | > 100 µM (inactive) | – | 57.9 µM (inactive) | 58.9 µM (inactive) | 77.6 µM (inactive) | 78.5 µM (inactive) | 48.1 µM (inactive)
4 | COc1cc(-c2cc(OC)c(OC)c3ccc(Br)cc23)c2cc(Br)ccc2c1OC | 18.6 µM (inactive) | 20.1 µM (inactive) | 22.4 µM (inactive) | 36.1 µM (inactive) | 23.8 µM (inactive) | – | 25.4 µM (inactive) | 20.5 µM (inactive) | 23.9 µM (inactive) | 41.8 µM (inactive) | 34.4 µM (inactive) | 21 µM (inactive) | – | – | 45.7 µM (inactive) | 20.2 µM (inactive) | 19.2 µM (inactive) | 31.1 µM (inactive) | 29 µM (inactive) | 31.6 µM (inactive)
5 | Cn1c(=O)nc2n(-c3ccc(Cl)cc3)c3ccc(Cl)cc3nc-2c1=O | 4.88 µM (inactive) | 9.23 µM (inactive) | 2.36 µM (inactive) | 7.76 µM (inactive) | 5.58 µM (inactive) | – | 4.36 µM (inactive) | 1.98 µM (inactive) | 19.5 µM (inactive) | 18 µM (inactive) | 7.62 µM (inactive) | 2.57 µM (inactive) | 14.5 µM (inactive) | 3.98 µM (inactive) | 16.8 µM (inactive) | 6.78 µM (inactive) | 8.79 µM (inactive) | 18.2 µM (inactive) | – | –
6 | CN(C)CCCOCCn1c2c(c3ccccc31)CCCC2 | 20 µM (inactive) | 16.6 µM (inactive) | 15.1 µM (inactive) | 14.4 µM (inactive) | – | – | 13.4 µM (inactive) | 17.9 µM (inactive) | 15.8 µM (inactive) | 17.1 µM (inactive) | 18.1 µM (inactive) | 18.2 µM (inactive) | 21.2 µM (inactive) | 17.5 µM (inactive) | 13.7 µM (inactive) | 26.9 µM (inactive) | 15 µM (inactive) | 18.4 µM (inactive) | 27.9 µM (inactive) | 23.2 µM (inactive)
7 | CC(=O)OCC1OC(n2c(-c3ccccc3)c(C(C)=O)c(-c3cccc4ccccc34)c(C#N)c2=S)C(OC(C)=O)C(OC(C)=O)C1OC(C)=O (stereo unspecified) | > 100 µM (inactive) | > 100 µM (inactive) | > 100 µM (inactive) | > 100 µM (inactive) | > 100 µM (inactive) | – | > 100 µM (inactive) | > 100 µM (inactive) | > 100 µM (inactive) | < 0.01 µM (active) | > 100 µM (inactive) | > 100 µM (inactive) | > 100 µM (inactive) | > 100 µM (inactive) | > 100 µM (inactive) | > 100 µM (inactive) | > 100 µM (inactive) | > 100 µM (inactive) | > 100 µM (inactive) | > 100 µM (inactive)
8 | CN(C)N1C(=C(C#N)C#N)C(c2ccccc2)CC1C#N (stereo unspecified) | > 100 µM (inactive) | > 100 µM (inactive) | > 100 µM (inactive) | > 100 µM (inactive) | > 100 µM (inactive) | – | > 100 µM (inactive) | > 100 µM (inactive) | > 100 µM (inactive) | > 100 µM (inactive) | > 10 µM (inactive) | – | > 100 µM (inactive) | > 100 µM (inactive) | > 100 µM (inactive) | > 100 µM (inactive) | > 100 µM (inactive) | > 100 µM (inactive) | > 100 µM (inactive) | > 100 µM (inactive)
9 | C=C1C(=O)O[C@H]2/C=C(/C)C3=CC(=O)[C@@](C)(C[C@@H](OC(=O)/C(C)=C\C)C12)O3 (stereo partly specified) | 12 µM (inactive) | 0.708 µM (active) | 2.42 µM (inactive) | 1.59 µM (inactive) | 5.2 µM (inactive) | – | 3.02 µM (inactive) | 2.43 µM (inactive) | 0.971 µM (active) | 1.21 µM (inactive) | 0.083 µM (active) | – | 2.86 µM (inactive) | 0.863 µM (active) | 1.87 µM (inactive) | 1.88 µM (inactive) | 0.265 µM (active) | – | 2.58 µM (inactive) | 0.811 µM (active)
10 | CCN(CC)CCNC(=O)c1ccccc1NC(=O)C(=O)Nc1ccccc1C(=O)NCCN(CC)CC | 42.5 µM (inactive) | 45.4 µM (inactive) | > 100 µM (inactive) | 32.5 µM (inactive) | > 100 µM (inactive) | – | 43 µM (inactive) | 44.6 µM (inactive) | > 100 µM (inactive) | > 100 µM (inactive) | 21.8 µM (inactive) | 62.7 µM (inactive) | 45.6 µM (inactive) | > 100 µM (inactive) | 30.2 µM (inactive) | > 100 µM (inactive) | 34.6 µM (inactive) | > 100 µM (inactive) | – | –
11 | CCCCNC(=O)NNC(=O)c1cc(/C=C/c2cccc([N+](=O)[O-])c2)ncn1 | > 100 µM (inactive) | > 100 µM (inactive) | > 100 µM (inactive) | > 100 µM (inactive) | > 100 µM (inactive) | – | > 100 µM (inactive) | 21.1 µM (inactive) | > 100 µM (inactive) | > 100 µM (inactive) | 34.8 µM (inactive) | > 100 µM (inactive) | > 100 µM (inactive) | > 100 µM (inactive) | > 100 µM (inactive) | > 100 µM (inactive) | > 100 µM (inactive) | > 100 µM (inactive) | – | –
